Measurements as given in ChEMBL document CHEMBL5385858, “Identification of novel Pyrrolo[2,3-d]Pyrimidine-based KRAS G12C inhibitors with anticancer effects” (Eur J Med Chem, 2023).
Calls of active or inactive are those of the source. No cut-off for these calls is given here.

Columns and labels:
[1] = target: SOS1-KRAS (Homo sapiens, UniProt P01116, G12C); test: Inhibition of KRAS G12C mutant/SOS1 (unknown origin) interaction incubated for 2 hrs in presence of GTP by HTRF assay; assay type: protein-complex assay
[2] = tested on: GTPase KRas (Homo sapiens), P01116 [G12C]; test: Inhibition of KRAS G12C mutant RBD in human NCI-H358 cells upto 1 uM in presence of GTP by pull-down assay; assay type: cell-based; details: time 24.0 hrs, TDE = time-dependent effect
[3] = tested on: GTPase KRas (Homo sapiens), P01116 [G12C]; test: Inhibition of KRAS G12C mutant in human NCI-H358 cells assessed as decrease in AKT phosphorylation incubated for 2 to 72 hrs by Western blot analysis; assay type: cell-based; details: time 2-72 hrs
[4] = tested on: GTPase KRas (Homo sapiens), P01116 [G12C]; test: Inhibition of KRAS G12C mutant in human NCI-H358 cells assessed as decrease in ERK phosphorylation at 0.1 uM incubated for 4 to 24 hrs by Western blot analysis; assay type: cell-based; details: time 4-24 hrs
[5] = tested on: MIA PaCa-2; test: Antiproliferative activity against human MIA PaCa-2 cells harboring KRAS G12C mutant assessed as inhibition of cell proliferation incubated for 3 days by CCK8 assay; assay type: functional, cell-based; details: MIA PaCa-2, 72 h
[6] = tested on: NCI-H358; test: Induction of apoptosis in human NCI-H358 cells assessed as early apoptotic cells at 0.1 uM incubated for 24 hrs by Annexin V-FITC/PI staining based flow cytometry (reference value: 5.4 %); assay type: functional
[7] = tested on: NCI-H358; test: Induction of apoptosis in human NCI-H358 cells assessed as necrotic cells at 0.1 uM incubated for 24 hrs by Annexin V-FITC/PI staining based flow cytometry (reference value: 1.88 %); assay type: functional
[8] = tested on: NCI-H358; test: Induction of apoptosis in human NCI-H358 cells assessed as necrotic cells at 0.3 uM incubated for 24 hrs by Annexin V-FITC/PI staining based flow cytometry (reference value: 1.88 %); assay type: functional
[9] = tested on: NCI-H358; test: Induction of apoptosis in human NCI-H358 cells assessed as viable cells at 0.5 uM incubated for 24 hrs by Annexin V-FITC/PI staining based flow cytometry (reference value: 91.4 %); assay type: functional; details: read-out: Activity
[10] = tested on: NCI-H358; test: Induction of apoptosis in human NCI-H358 cells assessed as late apoptotic cells at 0.5 uM incubated for 24 hrs by Annexin V-FITC/PI staining based flow cytometry (reference value: 1.32 %); assay type: functional
[11] = tested on: NCI-H358; test: Induction of apoptosis in human NCI-H358 cells assessed as necrotic cells at 0.5 uM incubated for 24 hrs by Annexin V-FITC/PI staining based flow cytometry (reference value: 1.88 %); assay type: functional
[12] = tested on: NCI-H358; test: Induction of apoptosis in human NCI-H358 cells assessed as early apoptotic cells at 1 uM incubated for 24 hrs by Annexin V-FITC/PI staining based flow cytometry (reference value: 5.4 %); assay type: functional
[13] = tested on: NCI-H358; test: Inhibition of cell migration in human NCI-H358 cells at 0.1 to 1 uM measured for 48 hrs by wound scratch assay; assay type: functional, cell-based; details: dose 0.1-1 µM
[14] = AUC (0 to t) in ICR mouse at 3 mg/kg, iv measured for 24 hrs by LC-MS/MS analysis; assay type: ADME, organism-based; set-up: dose 3 mg/kg, time 24 hrs, route iv; details: in vivo
[15] = AUC (0 to infinity) in ICR mouse at 3 mg/kg, iv measured for 24 hrs by LC-MS/MS analysis; assay type: ADME, organism-based; set-up: dose 3 mg/kg, time 24 hrs, route iv; details: in vivo
[16] = Half life in ICR mouse at 3 mg/kg, iv measured for 24 hrs by LC-MS/MS analysis; assay type: ADME, organism-based; details: in vivo
[17] = Clearance in ICR mouse at 3 mg/kg, iv measured for 24 hrs by LC-MS/MS analysis; assay type: ADME, organism-based; details: in vivo
[18] = AUC (0 to t) in ICR mouse at 30 mg/kg, po measured for 24 hrs by LC-MS/MS analysis; assay type: ADME, organism-based; set-up: dose 30 mg/kg, time 24 hrs, route po; details: in vivo
[19] = AUC (0 to infinity) in ICR mouse at 30 mg/kg, po measured for 24 hrs by LC-MS/MS analysis; assay type: ADME, organism-based; set-up: time 24 hrs, dose 30 mg/kg, route po; details: in vivo
[20] = C0 in ICR mouse at 30 mg/kg, po measured for 24 hrs by LC-MS/MS analysis; assay type: ADME, organism-based; details: in vivo
[21] = Tmax in ICR mouse at 30 mg/kg, po measured for 24 hrs by LC-MS/MS analysis; assay type: ADME, organism-based; details: in vivo
[22] = tested on: NCI-H358; test: Antitumor activity in human NCI-H358 cells xenografted in BALB/c-nu/nu mouse assessed as tumor regression at 30 mg/kg, po qd treated for 20 days; assay type: functional, organism-based; details: time 20.0 day
[23] = tested on: NCI-H358; test: Antitumor activity in human NCI-H358 cells xenografted in BALB/c-nu/nu mouse assessed as tumor growth inhibition at 10 mg/kg, po qd treated for 20 days relative to control; assay type: functional; details: Mus musculus, NCI-H358, 480 h, time 20 day, read-out: TGI
[24] = tested on: NCI-H358; test: Antitumor activity in human NCI-H358 cells xenografted in BALB/c-nu/nu mouse assessed as tumor growth inhibition at 30 mg/kg, po qd treated for 20 days relative to control; assay type: functional; details: NCI-H358, 480 h, time 20 day, read-out: TGI
[25] = Toxicity in BALB/c-nu/nu mouse xenografted with human NCI-H358 cells assessed as drug tolerance at 10 to 30 mg/kg, po qd treated for 20 days; assay type: organism-based; details: in vivo, 480 h, dose 10-30 mg/kg, time 20 day
[26] = Toxicity in BALB/c-nu/nu mouse xenografted with human NCI-H358 cells assessed as body weight loss at 10 to 30 mg/kg, po qd treated for 20 days; assay type: organism-based; details: in vivo, 480 h, dose 10-30 mg/kg, time 20 day
[27] = Toxicity in BALB/c-nu/nu mouse xenografted with human NCI-H358 cells assessed as morphological damage in heart at 10 to 30 mg/kg, po qd treated for 20 days; assay type: organism-based; details: in vivo, 480 h, dose 10-30 mg/kg, time 20 day
[28] = Toxicity in BALB/c-nu/nu mouse xenografted with human NCI-H358 cells assessed as morphological damage in kidney at 10 to 30 mg/kg, po qd treated for 20 days; assay type: organism-based; details: in vivo, 480 h, dose 10-30 mg/kg, time 20 day
[29] = tested on: NCI-H358; test: In vivo inhibition of KRAS G12C mutant in human NCI-H358 cells xenografted in BALB/c-nu/nu mouse assessed as decrease in ERK phosphorylation at 10 to 30 mg/kg, po qd treated for 20 days by Western blot analysis; assay type: functional, organism-based; details: dose 10-30 mg/kg, time 20.0 day
[30] = Toxicity in BALB/c-nu/nu mouse xenografted with human NCI-H358 cells assessed as histological change in liver at 10 to 30 mg/kg, po qd treated for 20 days by H and E staining based analysis; assay type: organism-based; details: in vivo, 480 h, dose 10-30 mg/kg, time 20 day
[31] = Toxicity in BALB/c-nu/nu mouse xenografted with human NCI-H358 cells assessed as histological change in spleen at 10 to 30 mg/kg, po qd treated for 20 days by H and E staining based analysis; assay type: organism-based; details: in vivo, 480 h, dose 10-30 mg/kg, time 20 day
[32] = Toxicity in BALB/c-nu/nu mouse xenografted with human NCI-H358 cells assessed as histological change in lung at 10 to 30 mg/kg, po qd treated for 20 days by H and E staining based analysis; assay type: organism-based; details: in vivo, 480 h, dose 10-30 mg/kg, time 20 day
[33] = Toxicity in BALB/c-nu/nu mouse xenografted with human NCI-H358 cells assessed as histological change in kidney at 10 to 30 mg/kg, po qd treated for 20 days by H and E staining based analysis; assay type: organism-based; details: in vivo, 480 h, dose 10-30 mg/kg, time 20 day

Chain of GTPase KRas (Homo sapiens), P01116 [G12C] (P01116 whole entry G12C): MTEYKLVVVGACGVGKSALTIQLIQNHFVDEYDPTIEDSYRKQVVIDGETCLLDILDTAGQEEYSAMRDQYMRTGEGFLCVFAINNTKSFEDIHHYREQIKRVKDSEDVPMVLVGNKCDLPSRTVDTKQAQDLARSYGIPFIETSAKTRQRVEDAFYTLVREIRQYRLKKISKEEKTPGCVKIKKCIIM
Chain of SOS1-KRAS (P01116 whole entry G12C, looked up): as the sequence (P01116 whole entry G12C) above

With `C=CC(=O)N1CCN(c2nc(OC[C@@]34CCCN3C[C@H](F)C4)nc3c2cc(-c2cccc4cccc(C)c24)n3C)C[C@@H]1CC#N` the IC50 [1] was 210 nM, the inhibition [2] was “Tde” and the inhibition [3] was “Dose-Dependent Effect”. For the same compound, the inhibition [4] was “Active”, the IC50 [5] was 870 nM and the Activity [6] was 10.5%. It also gave an Activity [7] of 1.17%, an Activity [8] of 1.06% and a viability at 0.5 µM [9] of 79%. It also gave an Activity [10] of 6.26%, an Activity [11] of 0.8% and an Activity [12] of 22.4%. The Activity [13] was “Active”, the AUC(0-t) at 24 h [14] was 801 ng·h/mL and the AUC(0-inf) [15] was 804 ng·h/mL. It also gave a half-life [16] of 55.8 min, a clearance [17] of 62.3 mL/min/kg and an AUC(0-t) at 24 h [18] of 600 ng·h/mL. The AUC(0-inf) [19] was 835 ng·h/mL, the C0 [20] was 316 ng/mL and the Tmax [21] was 4.98 min. The Activity [22] was “Active”, the inhibition in vivo at 10 mg/kg [23] was 65.4% and the inhibition in vivo at 30 mg/kg [24] was 84%. For the same compound, the Activity [25] was “Non-Toxic”, the Activity [26] was “Non-Toxic” and the Activity [27] was “Non-Toxic”. The Activity [28] was “Non-Toxic”, the inhibition [29] was “Active” and the Activity [30] was “Non-Toxic”. The Activity [31] was “Non-Toxic”, the Activity [32] was “Non-Toxic” and the Activity [33] was “Non-Toxic”.
